Columns and labels:
Format in all cases: in vivo
Amaranthus retroflexus [1] = test: Herbicidal effect pre-emergence; details: 320 g/ha, visual grading after ca. 3 weeks vs untreated controls
Excerpt: (§1) Herbicidal activities of the compounds of the formulae (G1) or (G2) according to the invention were investigated against the following harmful plants: • ALOMY=Alopecurus myosuroides • ECHCG=Echinochloa crus-galli • SETVI=Setaria viridis • ABUTH=Abutilon theophrasti • AMARE=Amaranthus retroflexus • PHBPU=Pharbitis purpurea • POLCO=Polygonum convolvulus (=Fallopia convolvulus) • STEME=Stellaria media • VIOTR=Viola tricolor
(§2) Seeds of mono- and dicotyledonous weed plants and crop plants are sown in wood-fiber pots in sandy loam and covered with soil. The compounds according to the invention, formulated in the form of wettable powders (WP) or as emulsifiable concentrates (EC), are then applied to the surface of the covering soil as aqueous suspension or emulsion, with the addition of 0.5% of an additive, at an application rate of 600 l of water/ha (converted).
(§3) Following treatment, the pots are placed in a greenhouse and kept under optimum growth conditions for the test plants. The visual grading of the damage to the test plants is carried out after ca. 3 weeks in comparison to untreated controls (herbicidal effect in percent (%): 100% effect=plants have died off, 0% effect=as control plants).

Setaria viridis [2] = test: Herbicidal effect pre-emergence; details: 320 g/ha, visual grading after ca. 3 weeks vs untreated controls
Excerpt: as §1, §2, §3

Viola tricolor [3] = test: Herbicidal effect pre-emergence; details: 320 g/ha, visual grading after ca. 3 weeks vs untreated controls
Excerpt: as §1, §2, §3

Amaranthus retroflexus [4] = test: Herbicidal effect post-emergence; details: 320 g/ha, visual grading after ca. 3 weeks (Table 9)
Excerpt: as §1
(§4) Seeds of mono- and dicotyledonous weed plants and crop plants are sown in wood-fiber pots in sandy loam, covered with soil and grown in a greenhouse under controlled growth conditions. 2 to 3 weeks after sowing, the test plants are sprayed in the single-leaf stage. The compounds according to the invention, formulated in form of wettable powders (WP) or as emulsifiable concentrates (EC), are then sprayed onto the green plant parts as aqueous suspension or emulsion, with the addition of 0.5% of an additive, at an application rate of 600 l of water/ha (converted). After the test plants had been in the greenhouse for ca. 3 weeks under optimum growth conditions, the effect of the preparations is assessed visually in comparison with untreated controls (herbicidal effect in percent (%): 100% effect=plants have died off, 0% effect=as control plants).

Setaria viridis [5] = test: Herbicidal effect post-emergence; details: 320 g/ha, visual grading after ca. 3 weeks (Table 9)
Excerpt: as §1, §4

Viola tricolor [6] = test: Herbicidal effect post-emergence; details: 320 g/ha, visual grading after ca. 3 weeks (Table 9)
Excerpt: as §1, §4

| Structure (SMILES) | herbicidal effect AMARE (Amaranthus retroflexus [1]) [%] | herbicidal effect SETVI (Setaria viridis [2]) [%] | herbicidal effect VIOTR (Viola tricolor [3]) [%] | herbicidal effect AMARE (Amaranthus retroflexus [4]) [%] | herbicidal effect SETVI (Setaria viridis [5]) [%] | herbicidal effect VIOTR (Viola tricolor [6]) [%] |
| --- | --- | --- | --- | --- | --- | --- |
| Nc1nsc2c(=O)n(CC3CCCCC3Cl)cc(Cl)c12 (racemic) [Example I-155] | 80 | 100 | 100 |  |  |  |
| O=C(Nc1nsc2c(=O)n(CC3CCCCC3Cl)cc(Cl)c12)C(F)F (racemic) [Example I-159] | 100 | 100 | 100 |  |  |  |
| CCC(=O)Nc1nsc2c(=O)n(CC3CCCCC3Cl)cc(Cl)c12 (racemic) [Example I-173] | 90 | 100 | 100 |  |  |  |
| CCc1cc2c(N)nsc2c(=O)n1CC1CCCCC1 [Example I-020] |  |  |  | 100 | 100 | 100 |
| CC(C)c1cc2c(NC(=O)C(F)(F)C(F)(F)F)nsc2c(=O)n1CC1CCCCC1 [Example I-021, N-[6-(cyclohexylmethyl)-5-isopropyl-7-oxo-isothiazolo[5,4-c]pyridin-3-yl]-2,2,3,3,3-pentafluoro-propanamide] | 100 | 90 | 100 | 100 | 100 | 80 |
| O=C(Nc1nsc2c(=O)n(CC3CCCCC3)c(C3CC3)cc12)C(F)(F)C(F)(F)F [Example I-022] | 100 | 100 | 100 |  |  |  |
| CC(C)c1cc2c(N)nsc2c(=O)n1CC1CCCCC1 [Example I-023, 3-amino-6-(cyclohexylmethyl)-5-isopropyl-isothiazolo[5,4-c]pyridin-7-one] | 100 | 90 | 90 | 100 | 90 | 100 |
| CC(=O)OCc1cc2c(N)nsc2c(=O)n1CC1CCCCC1 [Example I-027] | 100 | 90 | 90 |  |  |  |
| CCCc1cc2c(NC(=O)C(F)(F)C(F)(F)F)nsc2c(=O)n1CC1CCCCC1 [Example I-032] | 80 | 100 | 80 |  |  |  |
| CCC(=O)Nc1nsc2c(=O)n(CC3CCCCC3)c(COC)cc12 [Example I-033] | 100 | 100 | 100 |  |  |  |
| COCc1cc2c(NC(=O)C(F)(F)C(F)(F)F)nsc2c(=O)n1CC1CCCCC1 [Example I-034] | 100 | 100 | 100 |  |  |  |
| CC(=O)OCc1cc2c(NC(=O)C(F)(F)C(F)(F)F)nsc2c(=O)n1CC1CCCCC1 [Example I-035] | 100 | 100 | 80 |  |  |  |
| Nc1nsc2c(=O)n(CC3CCCCC3)c(CO)cc12 [Example I-036] | 100 | 90 | 80 | 90 | 100 | 100 |
| CCC(=O)Nc1nsc2c1CC(CO)N(CC1CCCCC1)C2=O (stereo not drawn) [Example I-044] | 100 | 90 | 100 | 100 | 100 | 100 |
| CCC(=O)OCc1cc2c(N)nsc2c(=O)n1CC1CCCCC1 [Example I-046] | 100 | 100 | 90 |  |  |  |
| C=Cc1cc2c(N)nsc2c(=O)n1CC1CCCCC1 [Example I-051] | 90 | 90 | 100 |  |  |  |
| CC(C)Cc1cc2c(NC(=O)C(F)(F)F)nsc2c(=O)n1CC1CCCCC1 [Example I-056] | 90 | 90 | 100 | 90 | 100 | 90 |
| C#Cc1cn(CC2CCCCC2)c(=O)c2snc(N)c12 [Example I-070] | 100 | 100 | 100 | 100 | 100 | 100 |
| CC(O)c1cc2c(N)nsc2c(=O)n1CC1CCCCC1 (stereo not drawn) [Example I-072] |  |  |  | 100 | 80 | 100 |

| Structure (SMILES) | herbicidal effect AMARE (Amaranthus retroflexus [1]) [%] | herbicidal effect SETVI (Setaria viridis [2]) [%] | herbicidal effect VIOTR (Viola tricolor [3]) [%] | herbicidal effect AMARE (Amaranthus retroflexus [4]) [%] | herbicidal effect SETVI (Setaria viridis [5]) [%] | herbicidal effect VIOTR (Viola tricolor [6]) [%] |
| --- | --- | --- | --- | --- | --- | --- |
| CCC(=O)N(C(=O)CC)c1nsc2c(=O)n(CC3CCCCC3)cc(Br)c12 [Example I-079] | 100 | 100 | 100 | 100 | 90 | 100 |
| C=Cc1cn(CC2CCCCC2)c(=O)c2snc(N)c12 [Example I-080] | 80 | 80 | 100 | 100 | 100 | 80 |
| COC(C)(C)C#Cc1cn(CC2CCCCC2)c(=O)c2snc(N)c12 [Example I-105] | 100 | 100 | 100 |  |  |  |
| CCc1cn(CC2CCCCC2)c(=O)c2snc(NC(=O)C(F)(F)C(F)(F)F)c12 [Example I-107] | 100 | 80 | 100 |  |  |  |
| COC/C=C/c1cn(CC2CCCCC2)c(=O)c2snc(N)c12 [Example I-108] |  |  |  | 100 | 100 | 100 |
| CCO/C=C/c1cn(CC2CCCCC2)c(=O)c2snc(N)c12 [Example I-113] |  |  |  | 100 | 100 | 100 |
| CC#Cc1cn(CC2CCCCC2)c(=O)c2snc(N)c12 [Example I-115] |  |  |  | 100 | 100 | 100 |
| CCCc1cn(CC2CCCCC2)c(=O)c2snc(N)c12 [Example I-126] |  |  |  | 100 | 80 | 100 |
| Cc1ccc(-c2cn(CC3CCCCC3)c(=O)c3snc(N)c23)o1 [Example I-132] |  |  |  | 80 | 100 | 90 |
| C=C(OCC)c1cn(CC2CCCCC2)c(=O)c2snc(N)c12 [Example I-133] | 90 | 90 | 100 |  |  |  |
| CO/N=C(/C)c1cn(CC2CCCCC2)c(=O)c2snc(N)c12 [Example I-134] |  |  |  | 100 | 80 | 100 |
| CCO/N=C(/C)c1cn(CC2CCCCC2)c(=O)c2snc(N)c12 [Example I-141] |  |  |  | 100 | 100 | 100 |
| CCO/N=C(/C)c1cn(CC2CCCCC2)c(=O)c2snc(N)c12 [Example I-142] |  |  |  | 100 | 100 | 80 |
| C=CCc1cn(CC2CCCCC2)c(=O)c2snc(N)c12 [Example I-143] |  |  |  | 100 | 100 | 100 |
| Nc1nsc2c1C(O)CN(CC1CCCCC1)C2=O (stereo not drawn) [Example I-144] | 100 | 90 | 100 |  |  |  |
| CC(O)c1cn(CC2CCCCC2)c(=O)c2snc(N)c12 (stereo not drawn) [Example I-147] |  |  |  | 100 | 80 | 100 |
| CC(=O)c1cn(CC2CCCCC2)c(=O)c2c1C(N)=NS2(=O)=O [Example I-158] | 90 | 80 | 100 |  |  |  |
| C/C(=N/OCC1CC1)c1cn(CC2CCCCC2)c(=O)c2snc(N)c12 [Example I-167] | 100 | 100 | 100 |  |  |  |
| Nc1nsc2c(=O)n(CC3CCCCC3)cc(C(=O)O)c12 [Example I-170] | 100 | 100 | 90 |  |  |  |

From US10842152B2, “Isothiazolo-based bicycles, processes for their preparation and their use as herbicides and/or plant growth regulators” (Bayer CropScience Aktiengesellschaft, priority 2017, dated 2020)
